Assay results: patent US20110028509A1, “Sulfonamides” (MERCK SERONO SA, priority 2008, published 2011)

Target: T1, CXCR3 (Homo sapiens, UniProt P49682)
T1 sequence (P49682 1-368): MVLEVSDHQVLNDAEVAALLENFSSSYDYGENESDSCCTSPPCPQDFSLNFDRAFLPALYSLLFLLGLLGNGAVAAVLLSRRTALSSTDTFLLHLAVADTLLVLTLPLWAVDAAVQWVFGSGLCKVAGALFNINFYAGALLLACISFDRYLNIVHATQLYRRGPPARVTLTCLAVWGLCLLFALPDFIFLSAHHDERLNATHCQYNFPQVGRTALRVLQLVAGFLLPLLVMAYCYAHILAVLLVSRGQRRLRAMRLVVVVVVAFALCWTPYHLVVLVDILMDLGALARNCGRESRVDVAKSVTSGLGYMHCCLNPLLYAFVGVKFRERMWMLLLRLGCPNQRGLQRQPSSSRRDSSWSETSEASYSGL
Assay: CXCR3 Ca2+ mobilization (FLIPR), stable hCXCR3-CHO cell line, I-TAC stimulated
Assay type: cell-based
Parameters: host or cells: CHO cells stably expressing hCXCR3
Conditions: hCXCR3-CHO cells, I-TAC 100 nM stimulated Ca2+ response; read-out: Ca-ITAC
Method: Human chinese hamster ovary (CHO) cell line stably expressing hCXCR3 was purchased from Euroscreen (Belgium) and culture in HAM's F12 (Invitrogen) containing 10% heat inactivated fetal calf serum (Cancerra, Australia), 50 units ml−1 penicillin, 50 μml−1 streptomycin, (Invitrogen, USA) and 400 μg/ml geneticin (G418) (Calbiochem, San Diego), according to the manufacturer.
CXCR3Ca^2+ mobilization was measured using a stable hCXCR3—CHO cell line and a microtiter-plate based assay using FLIPR^TETRA™ (Molecular Devices). In more detail, cells were harvested and plated into black 384-well plates (Becton-Dickinson) at a density of 15 000 cells per well and grown in the incubator for 18 hours. On the next day the media was aspirated and replaced with the cell loading buffer (HBSS—(Invitrogen) based buffer containing calcium indicator and signal enhancer from a commercial Ca2+ assay kit (Becton Dickinson). The plates were incubated for 60 minutes in the incubator, the test compounds were added and the plates equilibrated for 20 minutes at room temperature.
Plates were placed into FLIPR and the CXCR3 agonist (I-TAC, 100 nM) stimulated fluorescence change was quantitated. The activity of CXCR3 antagonists was determined as percent of the CXCR3 ligand I-TAC in the absence of the test compounds (=100% activity).

COc1ccc(S(=O)(=O)N(Cc2ccccc2)Cc2ccc(C(=O)NCc3ccccc3)cc2)cc1 [Example 31]
IC50: 1.9 µM

O=C(NCc1ccccc1)c1ccc(CN(Cc2ccccc2)S(=O)(=O)c2ccc(F)cc2)cc1 [Example 32]
IC50: 3.9 µM

O=C(NCc1ccccc1)c1ccc(CN(Cc2ccc(F)cc2)S(=O)(=O)c2ccc(Cl)cc2)cc1 [Example 34, 4-{[[(4-chlorophenyl)sulfonyl](4-fluorobenzyl)amino]methyl}-N-phenyl methyl benzamide]
IC50: 1.8 µM

COc1ccc(CN(Cc2ccc(C(=O)NCc3ccccc3)cc2)S(=O)(=O)c2ccc(Cl)cc2)cc1 [Example 35, 4-{[(4-Chloro-benzenesulfonyl)-(4-methoxybenzyl)-amino]-methyl}-N-phenyl methyl benzamide]
IC50: 6 µM

O=C(NCc1ccccc1)c1ccc(CN(Cc2ccccc2)S(=O)(=O)c2ccc(Cl)nc2)cc1 [Example 36]
IC50: 0.15 µM

COc1cccc(CN(Cc2ccc(C(=O)NCc3ccccc3)cc2)S(=O)(=O)c2ccc(Cl)cc2)c1 [Example 38, 4-{[(4-Chloro-benzenesulfonyl)-(3-methoxybenzyl)-amino]-methyl}-N-phenyl methyl benzamide]
IC50: 10 µM

O=C(NCC1CC1)c1ccc(CN(Cc2ccccn2)S(=O)(=O)c2ccc(Cl)c(Cl)c2)cc1 [Example 45]
IC50: 13 µM

O=C(NC1(c2ccccc2)CC1)c1ccc(CN(Cc2ccccn2)S(=O)(=O)c2ccc(Cl)c(Cl)c2)cc1 [Example 46]
IC50: 0.705 µM

CS(=O)(=O)NC(=O)c1ccc(CN(Cc2ccccn2)S(=O)(=O)c2ccc(Cl)cc2)cc1 [Example 48, N-(methanesulfonyl)-4{[[(4-chlorophenyl)sulfonyl](pyridin-2-ylmethyl)amino]methyl}benzamide]
IC50: 8.3 µM

O=C(NS(=O)(=O)C1CC1)c1ccc(CN(Cc2ccccn2)S(=O)(=O)c2ccc(Cl)cc2)cc1 [Example 49, N-(cyclopropanesulfonyl)-4-{[[(4-chlorophenyl)sulfonyl](pyridin-2-ylmethyl)amino]methyl}benzamide]
IC50: 5.6 µM

O=C(NS(=O)(=O)c1cccnc1)c1ccc(CN(Cc2ccccn2)S(=O)(=O)c2ccc(Cl)cc2)cc1 [Example 52, N-(3-pyridylsulfonyl)-4-{[[(4-chlorophenyl)sulfonyl](pyridin-2-ylmethyl)amino]methyl}benzamide]
IC50: 0.285 µM

CCS(=O)(=O)NC(=O)c1ccc(CN(Cc2ccccn2)S(=O)(=O)c2ccc(Cl)cc2)cc1 [Example 55, N-(ethanesulfonyl)-4-{[[(4-chlorophenyl)sulfonyl](pyridin-2-yl-methyl)amino]methyl}benzamide]
IC50: 11 µM

O=S(=O)(c1ccc(Cl)cc1)N(Cc1ccc(-c2nnn[nH]2)cc1)Cc1cc(Cl)ccc1F [Example 61, 4-chloro-N-(5-chloro-2-fluorobenzyl)-N-[4-(2H-tetrazol-5-yl)benzyl]benzene sulfonamide]
IC50: 0.2 µM

O=S(=O)(c1ccc(Cl)cc1)N(Cc1ccc(-c2nnn[nH]2)cc1)Cc1ccc(Cl)cc1F [Example 70, 4-chloro-N-(2-fluoro-4-chlorobenzyl)-N-[4-(2H-tetrazol-5yl)benzyl]benzene sulfonamide]
IC50: 3 µM

O=S(=O)(c1ccc(Cl)cc1Cl)N(Cc1ccc(-c2nnn[nH]2)cc1)Cc1ccccn1 [Example 78]
IC50: 3 µM

Cc1cc(S(=O)(=O)N(Cc2ccc(-c3nnn[nH]3)cc2)Cc2ccccn2)c(F)cc1Cl [Example 79]
IC50: 4 µM

CCOc1ccc(S(=O)(=O)N(Cc2ccc(C(=O)NC3(c4cccc(C#N)c4)CC3)cc2)Cc2ccccn2)cc1 [Example 85]
IC50: 4 µM

CCOc1ccc(S(=O)(=O)N(Cc2ccc(C(=O)NCC(C)c3ccccc3)cc2)Cc2ccccn2)cc1 (stereo not drawn) [Example 86]
IC50: 1.7 µM

CCOc1ccc(S(=O)(=O)N(Cc2ccc(C(=O)NCCc3ccc(S(N)(=O)=O)cc3)cc2)Cc2cccnc2)cc1 [Example 95]
IC50: 2 µM

O=S(=O)(c1ccc(Cl)cc1)N(Cc1ccc(-c2nnn[nH]2)cc1)Cc1ccccc1-c1ccccc1 [Example 103]
IC50: 3.45 µM

O=S(=O)(c1ccc(Cl)cc1)N(Cc1ccc(-c2nnn[nH]2)cc1)Cc1ccccc1Oc1ccc(F)cc1 [Example 104]
IC50: 1 µM

CCOc1ccc(S(=O)(=O)N(Cc2ccc(C(=O)N[C@H]3[C@@H]4CN(C(C)=O)C[C@@H]43)cc2)Cc2cccnc2)cc1 [Example 108]
IC50: 1.8 µM

N#Cc1ccc(S(=O)(=O)N(Cc2ccc(C(=O)NC3(c4cccc(C#N)c4)CC3)cc2)Cc2cccnc2)cc1 [Example 111]
IC50: 1.5 µM

CC(CNC(=O)c1ccc(CN(Cc2cccnc2)S(=O)(=O)c2ccc(C#N)cc2)cc1)c1ccccc1 (stereo not drawn) [Example 112]
IC50: 1.25 µM

O=S(=O)(c1ccc(OC(F)(F)F)cc1)N(Cc1ccccc1)Cc1ccc(-c2nnn[nH]2)cc1 [Example 115]
IC50: 2 µM

CCOc1ccc(S(=O)(=O)N(Cc2ccc(C(=O)N[C@H]3[C@@H]4CN(C(=O)c5ccc(OC(F)(F)F)cc5)C[C@@H]43)cc2)Cc2cccnc2)cc1 [Example 116]
IC50: 2 µM

CCOc1ccc(S(=O)(=O)N(Cc2ccc(C(=O)N[C@H]3[C@@H]4CN(C(=O)c5ccc(OC(F)(F)F)cc5)C[C@@H]43)cc2)Cc2ccccn2)cc1 [Example 117, 4-{[(4-Ethoxy-benzenesulfonyl)-pyridin-2-ylmethyl-amino]-methyl}-N-[(1S,5R,6S)-3-(4-trifluoromethoxy-benzoyl)-3-aza-bicyclo[3.1.0]hex-6-yl]-benzamide]
IC50: 0.8 µM

CCOc1ccc(C2(NC(=O)c3ccc(CN(Cc4ccccn4)S(=O)(=O)c4ccc(Cl)cc4)cc3)CC2)cc1 [Example 128]
IC50: 0.85 µM

CCOc1ccc(C2(NC(=O)c3ccc(CN(Cc4ccccn4)S(=O)(=O)c4ccc(C#N)cc4)cc3)CC2)cc1 [Example 129]
IC50: 2.5 µM

CCOc1ccc(C2(NC(=O)c3ccc(CN(Cc4ccccn4)S(=O)(=O)c4ccc(OCC)cc4)cc3)CC2)cc1 [Example 130]
IC50: 3 µM

O=C(NC1(c2ccc(OC(F)(F)F)cc2)CC1)c1ccc(CN(Cc2ccccn2)S(=O)(=O)c2ccc(Cl)cc2)cc1 [Example 131]
IC50: 5 µM

O=C(O)c1ccc(CNC(=O)c2ccc(CN(Cc3ccccn3)S(=O)(=O)c3ccc(Cl)cc3)cc2)cc1 [Example 133]
IC50: 2 µM

Cc1ccc(S(=O)(=O)N(Cc2ccc(-c3nnn[nH]3)cc2)Cc2ccccn2)cc1 [Example 139]
IC50: 2 µM

O=[N+]([O-])c1ccc(S(=O)(=O)N(Cc2ccc(-c3nnn[nH]3)cc2)Cc2ccccn2)cc1 [Example 140]
IC50: 2 µM

CC(C)(C)c1ccc(S(=O)(=O)N(Cc2ccc(-c3nnn[nH]3)cc2)Cc2ccccn2)cc1 [Example 141]
IC50: 3 µM

CCOC(=O)C1(NC(=O)c2ccc(CN(Cc3ccccn3)S(=O)(=O)c3ccc(C#N)cc3)cc2)CC1 [Example 144]
IC50: 0.14 µM

CN(C)c1ccc(CNC(=O)c2ccc(CN(Cc3ccccn3)S(=O)(=O)c3ccc(C#N)cc3)cc2)cn1 [Example 148]
IC50: 3 µM

O=C(NC(C(=O)O)c1ccccc1)c1ccc(CN(Cc2ccccn2)S(=O)(=O)c2ccc(Cl)cc2)cc1 (stereo not drawn) [Example 151]
IC50: 0.15 µM

O=C(N[C@H](C(=O)O)c1ccccc1)c1ccc(CN(Cc2ccccn2)S(=O)(=O)c2ccc(Cl)cc2)cc1 [Example 152]
IC50: 0.75 µM

O=C(N[C@H](Cc1ccccc1)C(=O)O)c1ccc(CN(Cc2ccccn2)S(=O)(=O)c2ccc(Cl)cc2)cc1 [Example 153]
IC50: 2 µM

O=C(N[C@@H](Cc1ccc(O)cc1)C(=O)O)c1ccc(CN(Cc2ccccn2)S(=O)(=O)c2ccc(Cl)cc2)cc1 [Example 154]
IC50: 4 µM

CCOC(=O)c1ccc(CN(Cc2cccnc2)S(=O)(=O)c2ccc(OCC)cc2)cc1 [Example 155]
IC50: 2 µM

CCOC(=O)c1ccc(CN(Cc2cccnc2)S(=O)(=O)c2ccc(C#N)cc2)cc1 [Example 156]
IC50: 1.9 µM

CCOC(=O)c1ccc(CN(Cc2cccnc2)S(=O)(=O)c2ccc(Cl)cc2)cc1 [Example 159]
IC50: 4 µM

O=S(=O)(c1cccc(Oc2ccccc2)c1)N(Cc1ccc(-c2nnn[nH]2)cc1)Cc1ccccn1 [Example 165]
IC50: 1.1 µM

C[C@H](c1ccc(NC(=O)C2(c3ccccc3)CC2)cc1)N(Cc1ccccn1)S(=O)(=O)c1ccc(Cl)cc1 [Example 168]
IC50: 3.33 µM

CC(c1ccc(-c2nnn[nH]2)cc1)N(Cc1ccccc1)S(=O)(=O)c1ccc(Cl)cc1 (stereo not drawn) [Example 171]
IC50: 1.95 µM

N#Cc1ccc(CN(Cc2ccccn2)S(=O)(=O)c2ccc([N+](=O)[O-])cc2)cc1 [Example 172]
IC50: 0.7 µM

N#Cc1ccc(CN(Cc2ccccn2)S(=O)(=O)c2ccccc2[N+](=O)[O-])cc1 [Example 173]
IC50: 0.4 µM

Cc1ccc(S(=O)(=O)N(Cc2ccc(C#N)cc2)Cc2ccccn2)cc1 [Example 174]
IC50: 1.5 µM

Cc1cccc(S(=O)(=O)N(Cc2ccc(C#N)cc2)Cc2ccccn2)c1 [Example 175]
IC50: 3.5 µM
